From patent US20110123623A1, “RHAMNOLIPID MECHANISM” (priority 2009, published 2011)
Read-outs that look alike come from different tables or passages of the source.

Tests used:
[1] = system: patients; assay: Treatment of patients with seborrheic dermatitis, lichen planus and dermatitis circumscripta unilocularis; assay type: in vivo, human
Method: Twelve psoriatic hospital bed patients, and one patient with seborrheic dermatitis and psoriasis, one patient with lichen planus and one with dermatitis cicumscripta unilocullaris as an out clinic patient were recruited as study volunteers.
Patients with seborhheic dermatitis, lichen planus and dermatitis unilocularis circumscripta eczematoides were cured.
This condition, confirmed with clinical appearance and histopahological findings, was treated with different standard approaches, (mostly) steroids, but condition worsened with tendency to spread further to the large wound covered by thick crust. Following the treatment with 1% Di-rhamnolipid W3CTS, eucerin ointment was introduced with overnight inclusions during four weeks. […] Patient died by natural course 15 years after treatment had been finished.

[2] = Ames test
[3] = system: Swiss-Webster female mice; assay: Acute cutaneous irritation, mouse ear assay (Part A); assay type: in vivo; conditions: single topical application, up to 24 hours
Method: Effects of Di-rhamnolipid W3CTS on TPA/pyr induced acute inflammation in the ears of Swiss-Webster female mice.
The aim of this study was two-fold. In Part A the potential of a single topical application of W3CTS to cause acute cutaneous irritation (up to 24 hours) was measured in a mouse ear assay system. […] The aim of Part B was to determine the effects of a single topical administration of W3CTS on acute dermal inflammation induced by TPA/pyr, Part B was designed to differentiate the ability of Di-rhamnolipid W3CTS at concentration 1 mg/ml to prevent, inhibit or reverse induced ear inflammation.

[4] = system: female Swiss-Webster mice; assay: Induction and challenge phases of DTH in the mouse ear; assay type: in vivo
Excerpt: Effects of Di-Rhamnolipid W3CTS on the Induction and Challenge Phases of DTH in Female Swiss-Webster Mice.
The aims of this study were first, to evaluate the in-vivo effects of Di-rhamnolipid W3CTS on aspects of a T-cell mediated immune response in mice and second, to determine if Di-rhamnolipid W3CTS was a sensitizing agent. This formed one of a series of studies to evaluate the toxicity and functionality of Di-rhamnolipid W3CTS.
The model used was induced delayed-type hypersensitivity (DTH) response in the mouse ear. In general, the DTH model involves administering a sensitizing agent mixed with an adjuvant, one or more occasions to prime the immune system. One to two weeks after the final induction and boost(s), animals are re-exposed to the sensitizing antigen, with a small volume injected intradermally in the ear, to elicit a secondary response (challenge). The ear swells during the secondary T-cell mediated response, and thus the change in ear thickness from prestimulation can be quantified. The present study had several sub-components testing different components of the immune response.
Parts A & B followed the standard procedure, in which the treatment test article, Di-rhamnolipid W3CTS, was administered topically concurrent to the challenge with sensitizing agent. Additionally, the effects of Di-rhamnolipid W3CTS on development of the primary immune response were also tested (Parts C&D). Therefore it was possible to obtain preliminary information about potential activity of Di-rhamnolipid W3CTS on more than one arm of the immune system. In parts B, C, and D, the protein ovalbumin, in CFA (Complete Freund's Adjuvant) or IFA (Incomplete Freund's Adjuvant) was used as the sensitizing agent as it is a standard with well-characterized, quantifiable activity in DTH. An additional compound, DNCB (1-chloro-2,4-di-nitro benzene) with gamma interferon (IFN-gamma), was also used (Group A) in order to maximize the opportunity to characterize the activity of Di-rhamnolipid W3CTS on T-cell mediated immunity. […]

[5] = system: female ICR mice; assay: Immunosuppression (cellular): oxazolone-induced delayed type hypersensitivity; assay type: in vivo, mouse; conditions: oxazolone-induced DTH
Excerpt: Immunosuppression (cellular): Oxazolone-induced delayed type hypersensitivity of female ICR mice was negative.

[6] = Micronucleus test in-vivo
[7] = Storage stability of Di-rhamnolipid W3CTS; assay type: physicochemical; conditions: kept under Nitrogen in bottles at room temperature, 10 years
Excerpt: Di-rhamnolipid W3CTS has been isolated from Pseudomonas aeruginosa. Production of >98.5% pure Di-rhamnolipid W3CTS is a very expensive procedure; thus, the goal is to produce the clinically accepted purity of the rhamnolipid that has a long shelf life.

[8] = system: neonatal human keratinocytes; assay: Colony forming efficiency of neonatal human keratinocytes; assay type: cell-based; conditions: GM medium with 10% fetal bovine serum
Method: Colony forming efficiency of neonatal human keratinocytes treated with Di-rhamnolipid W3CTS.
The stimulation was most significant at 100 μg/ml and 50 μg/ml the colony forming ability was increased by 34% at 50 μg/ml of Di-rhamnolipid W3CTS. The results are consistent with the effects of Di-rhamnolipid W3CTS on the neonatal human keratinocyte viability in GM with 10% fetal bovine serum.

[9] = system: chronic decubitus ulcer in humans; assay: Treatment of chronic decubitus ulcer; assay type: in vivo, human; conditions: topical 0.1% eucerin ointment; single case
Excerpt: Treatment of Chronic Decubitus Ulcer with Di-Rhamnolipid W3CTS

[10] = system: T-lymphocyte cells isolated from thymus of balb/c mice; assay: Mouse T-cell proliferation (thymidine incorporation); assay type: cell-based
Method: T-lymphocyte cells isolated from thymus of balb/c mice weighing 17±1 g were used. Test compound and/or vehicle was incubated with the cells (4×10^6/ml) in the presence of 3 μg/ml concanavalin A (Con A) overnight. Thymidine incorporation was assessed by liquid scintillation counting. B-lymphocyte cells isolated from the spleen of balb/c mice weighing 17±1 g were used. Test compound and/or vehicle was incubated with the cells (1.5×10^6/ml) in the presence of 10 μg/ml lipopolysaccharide (LPS) in AIM-V medium pH 7.4 at 37° C., during 24 hours. [^3H]Thymidine (120 nM) was then added for an additional overnight incubation period. Thymidine incorporation was assessed by liquid scintillation counting. […] T-cells isolated from mouse thymus were inhibited at the concentration of 10 μM by 24% and in the presence of concanavalin T-cells proliferation was inhibited 43%.

CCCCCCCC(CC(=O)O)OC(=O)CC(CCCCCCC)OC1OC(C)C(O)C(O)C1OC1OC(C)C(O)C(O)C1O (stereo not shown) [Di-rhamnolipid W3CTS]
outcome in seborhheic dermatitis, lichen planus and dermatitis unilocularis circumscripta eczematoides ([1]; 1.0% eucerin ointment): cured
skin over the wound ([1]; after one year): looking normal
wound healing in dermatitis circumscripta unilocularis ([1]; person, 1% eucerin ointment, overnight inclusions during four weeks): The wound started to heal
Ames test [2]: negative
acute cutaneous irritation (ear erythema) [3]: did not cause acute cutaneous irritation
effect on subsequent DTH response (Part C) ([4]; concurrently administered at induction with ovalbumin/IFA): inhibit the subsequent DTH response
effect on primary immune response (Part D) ([4]; given at induction): did not show potential to enhance a primary immune response
effect on secondary immune response, DTH (Part B) ([4]; topical at challenge, ovalbumin/CFA): sustained or increased DTH response
Immunosuppression (cellular) [5]: negative
micronucleus test [6]: negative
change of structure on storage [7]: did not change its structure during 10 years
colony forming ability increase ([8]; 50 μg/ml): 34%
growth of keratinocyte colonies ([8]; 100, 50, 10 and 1 μg/ml): stimulated the growth of keratinocyte colonies
healing of chronic decubitus ulcer [9]: profound beneficial effect on the healing
inhibition at 10 µM ([10]; in the presence of concanavalin, read-out: inhibition of T-cells proliferation): 43%
inhibition at 10 µM ([10]; without concanavalin, read-out: inhibition of T-cells): 24%
